# From patent US9464081B2, “Pyrrolidine derivatives and their use as complement pathway modulators” (priority 2012, dated 2016)
# Biological target: Recombinant human factor D (Homo sapiens (Human), UniProt P00746)
# Experiment: Human Complement Factor D Assay: Method 1
# Format: biochemical
# Conditions: 10 nM recombinant human factor D, substrate Z-Lys-thiobenzyl, fluorescence readout, read-out: IC50 Factor D inhibition
# Procedure: Human Complement Factor D Assay: Method 1
# Recombinant human factor D (expressed in E. coli and purified using standard methods) at 10 nM concentration is incubated with test compound at various concentrations for 1 hour at room temperature in 0.1 M Hepes buffer, pH 7.5, containing 1 mM MgCl2, 1 M NaCl and 0.05% CHAPS. A synthetic substrate Z-Lys-thiobenzyl and 2,4-dinitrobenzenesulfonyl-fluoresceine are added to final concentrations of 200 μM and 25 μM, respectively. The increase in fluorescence is recorded at excitation of 485 nm and emission at 535 nm in a microplate spectrofluorimeter. IC50 values are calculated from percentage of inhibition of complement factor D-activity as a function of test compound concentration.
# Factor D Inhibition Data Using Method 1 to Determine the IC50s.
# Sequence of Recombinant human factor D (P00746 26-253): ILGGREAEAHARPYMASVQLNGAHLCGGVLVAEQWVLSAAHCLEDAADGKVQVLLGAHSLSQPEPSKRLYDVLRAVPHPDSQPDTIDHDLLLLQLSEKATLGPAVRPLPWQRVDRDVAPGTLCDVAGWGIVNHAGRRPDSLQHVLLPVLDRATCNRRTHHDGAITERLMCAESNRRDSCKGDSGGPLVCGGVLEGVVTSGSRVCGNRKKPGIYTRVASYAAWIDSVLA
row,SMILES,IC50
1,"CC(C)=C(F)CNC(=O)[C@@H]1C[C@H]2C[C@H]2N1C(=O)Cn1nc(C(N)=O)c2ccc(Cl)cc21 [Example 1, 6-Chloro-1-{2-[(1R,3S,5R)-3-(2-fluoro-3-methyl-but-2-enylcarbamoyl)-2-aza-bicyclo[3.1.0]hex-2-yl]-2-oxo-ethyl}-1H-indazole-3-carboxylic acid amide]",33 nM
2,"NC(=O)c1nn(CC(=O)N2[C@@H]3C[C@@H]3C[C@H]2C(=O)NCC(F)=C2CCCC2)c2ccccc12 [Example 17, 1-{2-[(1R,3S,5R)-3-(2-Cyclopentylidene-2-fluoro-ethylcarbamoyl)-2-aza-bicyclo[3.1.0]hex-2-yl]-2-oxo-ethyl}-1H-indazole-3-carboxylic acid amide]",128 nM
3,"CC(=O)c1nn(CC(=O)N2[C@@H]3C[C@@H]3C[C@H]2C(=O)NCC(F)=C(C)C)c2ccccc12 [Example 11, (1R,3S,5R)-2-[2-(3-Acetyl-indazol-1-yl)-acetyl]-2-aza-bicyclo[3.1.0]hexane-3-carboxylic acid (2-fluoro-3-methyl-but-2-enyl)-amide]",19 nM
4,"CC(C)=C(F)CNC(=O)[C@@H]1C[C@@]2(CO)C[C@H]2N1C(=O)Cn1nc(C(N)=O)c2ccccc21 [Example 6, 1-{2-[(1R,3S,5S)-3-(2-Fluoro-3-methyl-but-2-enylcarbamoyl)-5-hydroxymethyl-2-aza-bicyclo[3.1.0]hex-2-yl]-2-oxo-ethyl}-1H-indazole-3-carboxylic acid amide]",99 nM
5,"CC(C)=C(F)CNC(=O)[C@@H]1C[C@H]2C[C@H]2N1C(=O)Cn1nc(C(N)=O)c2ccncc21 [Example 10, 1-{2-[(1R,3S,5R)-3-(2-Fluoro-3-methyl-but-2-enylcarbamoyl)-2-aza-bicyclo[3.1.0]hex-2-yl]-2-oxo-ethyl}-1H-pyrazolo[3,4-c]pyridine-3-carboxylic acid amide]",78 nM
6,"CO[C@H]1[C@@H](C(=O)NCC(F)=C(C)C)N(C(=O)Cn2nc(C(N)=O)c3ccccc32)C[C@@H]1F [Example 8, 1-{2-[(2S,3S,4S)-4-Fluoro-2-(2-fluoro-3-methyl-but-2-enylcarbamoyl)-3-methoxy-pyrrolidin-1-yl]-2-oxo-ethyl}-1H-indazole-3-carboxylic acid amide]",59 nM
7,"CO[C@H]1[C@@H](C(=O)NCC(F)=C(C)C)N(C(=O)Cn2nc(C(N)=O)c3ccncc32)C[C@@H]1F [Example 5, 1-{2-[(2S,3S,4S)-4-Fluoro-2-(2-fluoro-3-methyl-but-2-enylcarbamoyl)-3-methoxy-pyrrolidin-1-yl]-2-oxo-ethyl}-1H-pyrazolo[3,4-c]pyridine-3-carboxylic acid amide]",253 nM
8,"CC(C)=C(F)CNC(=O)[C@@H]1C[C@H]2C[C@H]2N1C(=O)Cn1nc(C(N)=O)c2cc(C)ncc21 [Example 12, 1-{2-[(1R,3S,5R)-3-(2-Fluoro-3-methyl-but-2-enylcarbamoyl)-2-aza-bicyclo[3.1.0]hex-2-yl]-2-oxo-ethyl}-5-methyl-1H-pyrazolo[3,4-c]pyridine-3-carboxylic acid amide]",74 nM
9,"CC(=O)c1nn(CC(=O)N2[C@@H]3C[C@@H]3C[C@H]2C(=O)NCC(F)=C(C)C)c2ccc(OCc3ncccn3)cc12 [Example 16, (1R,3S,5R)-2-{2-[3-Acetyl-5-(pyrimidin-2-ylmethoxy)-indazol-1-yl]-acetyl}-2-aza-bicyclo[3.1.0]hexane-3-carboxylic acid (2-fluoro-3-methyl-but-2-enyl)-amide]",7 nM
10,"CC(C)=C(F)CNC(=O)[C@@H]1C[C@H]2C[C@H]2N1C(=O)Cn1nc(C(N)=O)c2cc(C)nc(C)c21 [Example 9, 1-{2-[(1R,3S,5R)-3-(2-Fluoro-3-methyl-but-2-enylcarbamoyl)-2-aza-bicyclo[3.1.0]hex-2-yl]-2-oxo-ethyl}-5,7-dimethyl-1H-pyrazolo[3,4-c]pyridine-3-carboxylic acid amide]",356 nM
11,"NC(=O)c1nn(CC(=O)N2[C@@H]3C[C@@H]3C[C@H]2C(=O)NC/C(F)=C/C(F)(F)F)c2ccccc12 [Example 20, 1-(2-oxo-2-((1R,3S,5R)-3-(((Z)-2,4,4,4-tetrafluorobut-2-en-1-yl)carbamoyl)-2-azabicyclo[3.1.0]hexan-2-yl)ethyl)-1H-indazole-3-carboxamide]",90 nM
12,"CC(=O)c1nn(CC(=O)N2[C@@H]3C[C@@H]3C[C@H]2C(=O)NCC(F)=C(C)C)c2cnccc12 [Example 13, (1R,3S,5R)-2-[2-(3-Acetyl-pyrazolo[3,4-c]pyridin-1-yl)-acetyl]-2-aza-bicyclo[3.1.0]hexane-3-carboxylic acid (2-fluoro-3-methyl-but-2-enyl)-amide]",37 nM
13,"CC(C)=C(F)[C@@H](C)NC(=O)[C@@H]1C[C@H]2C[C@H]2N1C(=O)Cn1nc(C(N)=O)c2ccccc21 [Example 22, 1-(2-((1R,3S,5R)-3-((R)-3-fluoro-4-methylpent-3-en-2-ylcarbamoyl)-2-azabicyclo[3.1.0]hexan-2-yl)-2-oxoethyl)-1H-indazole-3-carboxamide]",6 nM
14,"CC(C)=C(F)CNC(=O)[C@@H]1C[C@H]2C[C@H]2N1C(=O)Cn1nc(C(N)=O)c2ccnc(C)c21 [Example 14, 1-{2-[(1R,3S,5R)-3-(2-Fluoro-3-methyl-but-2-enylcarbamoyl)-2-aza-bicyclo[3.1.0]hex-2-yl]-2-oxo-ethyl}-7-methyl-1H-pyrazolo[3,4-c]pyridine-3-carboxylic acid amide]",63 nM
15,"CC(C)=C(F)CNC(=O)[C@@H]1C[C@@H](F)CN1C(=O)Cn1nc(C(N)=O)c2ccncc21 [Example 3, 1-{2-[(2S,4R)-4-Fluoro-2-(2-fluoro-3-methyl-but-2-enylcarbamoyl)-pyrrolidin-1-yl]-2-oxo-ethyl}-1H-pyrazolo[3,4-c]pyridine-3-carboxylic acid amide]",255 nM
16,"CC(C)=C(F)CNC(=O)[C@@H]1C[C@H]2C[C@H]2N1C(=O)Cn1nc(C(N)=O)c2ccc(C)cc21 [Example 4, 1-{2-[(1R,3S,5R)-3-(2-Fluoro-3-methyl-but-2-enylcarbamoyl)-2-aza-bicyclo[3.1.0]hex-2-yl]-2-oxo-ethyl}-6-methyl-1H-indazole-3-carboxylic acid amide]",450 nM
17,"[2H]C([2H])([2H])C(=C(F)CNC(=O)[C@@H]1C[C@H]2C[C@H]2N1C(=O)Cn1nc(C(N)=O)c2ccccc21)C([2H])([2H])[2H] [Example 18, 1-{2-[(1R,3S,5R)-3-(2-Fluoro-3-di-(trideutero-methyl)-allylcarbamoyl)-2-aza-bicyclo[3.1.0]hex-2-yl]-2-oxo-ethyl}-1H-indazole-3-carboxylic acid amide]",50 nM
18,"CC(C)=C(F)CNC(=O)[C@@H]1C[C@H]2C[C@H]2N1C(=O)Cn1nc(C(N)=O)c2ccccc21 [Example 2, 1-{2-[(1R,3S,5R)-3-(2-Fluoro-3-methyl-but-2-enylcarbamoyl)-2-aza-bicyclo[3.1.0]hex-2-yl]-2-oxo-thyl}-1H-indazole-3-carboxylic acid amide]",35 nM
19,"CC(C)=C(F)CNC(=O)[C@@H]1C[C@@H](F)CN1C(=O)Cn1nc(C(N)=O)c2ccccc21 [Example 7, 1-{2-[(2S,4R)-4-Fluoro-2-(2-fluoro-3-methyl-but-2-enylcarbamoyl)-pyrrolidin-1-yl]-2-oxo-ethyl}-1H-indazole-3-carboxylic acid amide]",56 nM
20,"CCc1cc2c(C(N)=O)nn(CC(=O)N3[C@@H]4C[C@@H]4C[C@H]3C(=O)NCC(F)=C(C)C)c2cn1 [Example 15, 5-Ethyl-1-{2-[(1R,3S,5R)-3-(2-fluoro-3-methyl-but-2-enylcarbamoyl)-2-aza-bicyclo[3.1.0]hex-2-yl]-2-oxo-ethyl}-1H-pyrazolo[3,4-c]pyridine-3-carboxylic acid amide]",43 nM
21,"CC(C)=C(F)C(C)NC(=O)[C@@H]1C[C@H]2C[C@H]2N1C(=O)Cn1nc(C(N)=O)c2ccccc21 (stereo partly drawn) [Example 19, 1-{2-[(1R,3S,5R)-3-(2-Fluoro-1,3-dimethyl-but-2-enylcarbamoyl)-2-aza-bicyclo[3.1.0]hex-2-yl]-2-oxo-ethyl}-1H-indazole-3-carboxylic acid amide]",7 nM
22,"CC(C)=C(F)[C@H](C)NC(=O)[C@@H]1C[C@H]2C[C@H]2N1C(=O)Cn1nc(C(N)=O)c2ccccc21 [Example 21, 1-(2-((1R,3S,5R)-3-((S)-3-fluoro-4-methylpent-3-en-2-ylcarbamoyl)-2-azabicyclo[3.1.0]hexan-2-yl)-2-oxoethyl)-1H-indazole-3-carboxamide]",1800 nM
